Data reported in US6514981B1, “Methods of modulating tyrosine protein kinase function with indolinone compounds” (Sugen, Inc., priority 1998, dated 2003).

Test system: HUV-EC-C cells
Test: HUV-EC-C assay (3H-thymidine), aFGF
Type: cell-based
Conditions: Homo sapiens, 3H-thymidine incorporation, HUVEC
Experimental: The following protocol may also be used to measure a compound's activity against PDGF-R, FGF-R or Flk-1/KDR, all of which are naturally expressed by HUV-EC cells. 1. Wash and trypsinize HUV-EC-C cells (human umbilical vein endothelial cells, (American Type Culture Collection; catalogue no. 1730 CRL). Wash with Dulbecco's phosphate-buffered saline (D-PBS; obtained from Gibco BRL, catalogue no. 14190-029) 2 times at about 1 mL/10 CM^2 of tissue culture flask. Trypsinize with 0.05% trypsin-EDTA in non-enzymatic cell dissociation solution (Sigma Chemical Company; catalogue no. C-1544). The 0.05% trypsin was made by diluting 0.25% trypsin/1 mM EDTA (Gibco; catalogue no. 25200-049) in the cell dissociation solution. Trypsinize with about 1 mL/25-30 cm^2 of tissue culture flask for about 5 minutes at 37° C. After cells have detached from the flask, add an equal volume of assay medium and transfer to a 50 mL sterile centrifuge tube (Fisher Scientific; catalogue no. 05-539-6). 2. Wash the cells with about 35 mL assay medium in the 50 mL sterile centrifuge tube by adding the assay medium, centrifuge for 10 minutes at approximately 200×g aspirate the supernatant and resuspend with 35 mL D-PBS. Repeat the wash two more times with D-PBS, resuspend the cells in about 1 mL assay medium/15 cm^2 of tissue culture flask. […]

Structure (SMILES): Cc1cc(/C=C2/C(=O)Nc3ccccc32)c(C)c2c1[nH]c1ccccc12 [VI]
- IC50: 0.63 µM
